Experiments:
GOX = GOX (Aspergillus niger, UniProt P13006); details: 3+ form of mediator
[1] = Redox potential of the mediator; type: physicochemical
Description: Another specific mediator is [Os(Mebpy)2Pic]^+/2+.

GOX, sequence (P13006 17-605, species assumed): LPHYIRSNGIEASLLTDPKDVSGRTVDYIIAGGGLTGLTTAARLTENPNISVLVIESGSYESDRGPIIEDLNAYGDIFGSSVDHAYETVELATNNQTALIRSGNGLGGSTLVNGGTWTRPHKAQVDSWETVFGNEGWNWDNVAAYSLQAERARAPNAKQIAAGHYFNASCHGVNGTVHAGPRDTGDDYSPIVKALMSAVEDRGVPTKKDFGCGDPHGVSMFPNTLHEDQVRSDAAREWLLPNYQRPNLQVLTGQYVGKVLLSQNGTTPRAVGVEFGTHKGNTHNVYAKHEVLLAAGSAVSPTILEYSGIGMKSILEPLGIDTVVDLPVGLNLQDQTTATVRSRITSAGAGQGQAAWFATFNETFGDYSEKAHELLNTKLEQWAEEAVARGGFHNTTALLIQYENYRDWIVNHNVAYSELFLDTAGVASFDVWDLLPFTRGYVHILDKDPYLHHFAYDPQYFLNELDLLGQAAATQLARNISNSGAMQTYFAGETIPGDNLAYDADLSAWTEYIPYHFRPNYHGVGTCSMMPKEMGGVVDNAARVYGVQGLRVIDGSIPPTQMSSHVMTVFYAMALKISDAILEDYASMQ

Substance: [Os(MeBpy)2(Im)2]^2+/3+
- second order rate constant of electron transfer from GOX to the 3+ mediator (GOX): approximately 4.0×10^5 M^−1s^−1
- redox potential E^o [1]: 140-154 mV

From patent publication US8057659B2, “Detection of analytes in a dual-mediator electrochemical test strip” (AgaMatrix, Inc., priority 2006, dated 2011)
